The target in the experiment is T1, PHD2 (Homo sapiens, UniProt Q9GZT9).
T1 construct: FLAG-tagged full length PHD2 expressed in and purified from baculovirus-infected Sf9 cells; FLAG; made in house; host or cells: baculovirus-infected Sf9 cells
The experiment is described as follows: PHD2 / HIF-1α peptide hydroxylation assay, time resolved fluorescence (VHL complex detection). It counts as biochemical. Particulars: FLAG-tagged full length PHD2; 0.2 μM 2-oxoglutarate, 0.5 μM HIF-1α peptide; read-out: PHD2 Activity (PHD2 binding activity expressed as IC50 (nM)). Summed up: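 Sf9-expressed FLAG-tagged full-length PHD2 (0.15 μg/ml) preincubated with compound 30 min at room temperature in Tris pH 7.4 buffer with 10 μM ferrous sulfate, 1 mM ascorbate and catalase. Reaction started with 0.2 μM 2-oxoglutarate and 0.5 μM biotinylated HIF-1α peptide (final); hydroxylation detected by time-resolved fluorescence via VHL complex binding.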

Counter-ions that a name gives are not always drawn.

By IC50 is commonly meant the concentration at which inhibition is half-maximal.

T1 sequence (Q9GZT9 whole entry): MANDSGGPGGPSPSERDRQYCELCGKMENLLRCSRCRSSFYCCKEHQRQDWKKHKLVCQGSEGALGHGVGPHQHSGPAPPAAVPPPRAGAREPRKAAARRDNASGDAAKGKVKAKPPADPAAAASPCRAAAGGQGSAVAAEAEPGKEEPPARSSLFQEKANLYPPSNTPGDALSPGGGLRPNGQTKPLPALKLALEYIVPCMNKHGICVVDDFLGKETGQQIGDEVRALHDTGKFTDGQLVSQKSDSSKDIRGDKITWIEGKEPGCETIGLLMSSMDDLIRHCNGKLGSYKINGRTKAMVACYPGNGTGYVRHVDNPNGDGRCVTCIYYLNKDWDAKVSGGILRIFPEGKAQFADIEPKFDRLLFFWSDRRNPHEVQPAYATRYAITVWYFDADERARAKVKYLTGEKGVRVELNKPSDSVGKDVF

In the case of `COc1cccc([C@H](C)NC(=O)c2cnc(-n3cccn3)nc2O)c1` [Example 126, 4-hydroxy-N-[(1S)-1-(3-methoxyphenyl)ethyl]-2-(1H-pyrazol-1-yl)pyrimidine-5-carboxamide], the IC50 was not above 10 nM. Consider `CC[C@H](NC(=O)c1cnc(-c2csc(C)n2)nc1O)c1ccccc1` [Example 35, 4-Hydroxy-2-(2-methyl-1,3-thiazol-4-yl)-N-[(1S)-1-phenylpropyl]pyrimidine-5-carboxamide], for which the IC50 fell in the range of 10 to 100 nM. The figure for `O=C(NC1CCCCC1)c1cnc(-c2cccnn2)nc1O` [Example 135, N-cyclohexyl-4-hydroxy-2-(pyridazin-3-yl)pyrimidine-5-carboxamide] is 10 to 100 nM; for `N#Cc1ccc(C(NC(=O)c2cnc(-c3cccnn3)nc2O)C2CCCCC2)cc1` (single isomer, unassigned) [Example 163, N-[(4-cyanophenyl)(cyclohexyl)methyl]-4-hydroxy-2-(pyridazin-3-yl)pyrimidine-5-carboxamide] it is not above 10 nM. For the molecule `O=C(NCc1ccc(F)cc1)c1cnc(-c2ncccn2)nc1O` [Example 21, N-(4-fluorobenzyl)-4-hydroxy-2,2′-bipyrimidine-5-carboxamide], the IC50 fell in the range of 1000 to 10000 nM. Then `COc1ccc(C(NC(=O)c2cnc(-c3cccnn3)nc2O)c2ccc(O)cc2)cc1` (single isomer, unassigned) [Example 157, 4-hydroxy-N-[(4-hydroxyphenyl)(4-methoxyphenyl)methyl]-2-(pyridazin-3-yl)pyrimidine-5-carboxamide], with not above 10 nM.

For `COc1ccc(C(NC(=O)c2cnc(-n3cccn3)nc2O)c2ccc(OC)nc2)cc1` (centres unmarked) [Example 167, 4-hydroxy-N-[(4-methoxyphenyl)(6-methoxypyridin-3-yl)methyl]-2-(1H-pyrazol-1-yl)pyrimidine-5-carboxamide trifluoroacetate (salt)], the IC50 is not above 10 nM. As to `COc1ccc(C(NC(=O)c2cnc(-c3cccnn3)nc2O)c2ccc3cc(OC)ccc3n2)cc1` (centres unmarked) [Example 172, 4-hydroxy-N-[(4-methoxyphenyl)(6-methoxyquinolin-2-yl)methyl]-2-(pyridazin-3-yl)pyrimidine-5-carboxamide], the half-inhibitory concentration (IC50) is not above 10 nM. Consider `O=C(NCc1cnc(-c2ccc(F)cc2)cn1)c1cnc(-n2cccn2)nc1O` [Example 109, N-{[5-(4-fluorophenyl)pyrazin-2-yl]methyl}-4-hydroxy-2-(1H-pyrazol-1-yl)pyrimidine-5-carboxamide], for which the IC50 was in the range of 10 to 100 nM. For `COc1ccc(C(NC(=O)c2cnc(-c3cccnn3)nc2O)c2ccc(C#N)cc2)cc1` (single isomer, unassigned) [Example 150, N-[(4-cyanophenyl)(4-methoxyphenyl)methyl]-4-hydroxy-2-(pyridazin-3-yl)pyrimidine-5-carboxamide], the IC50 was not above 10 nM. As to `O=C(N[C@H](CO)c1ccccc1)c1cnc(-n2cccn2)nc1O` [Example 122, 4-hydroxy-N-[(1S)-2-hydroxy-1-phenylethyl]-2-(1H-pyrazol-1-yl)pyrimidine-5-carboxamide], the concentration for half-maximal inhibition (IC50) was 10 to 100 nM.

For the molecule `CC(NC(=O)c1cnc(-n2cccn2)nc1O)c1ccccn1` (centres unmarked) [Example 118, 4-hydroxy-2-(1H-pyrazol-1-yl)-N-[1-(pyridin-2-yl)ethyl]pyrimidine-5-carboxamide], the IC50 is 10 to 100 nM. For the molecule `O=C(NC(c1ccc(O)cc1)c1ccc(O)cc1)c1cnc(-c2cccnn2)nc1O` [Example 6, N-[bis(4-hydroxyphenyl)methyl]-4-hydroxy-2-ylpyridazin-3-ylpyrimidine-5-carboxamide], the IC50 was not above 10 nM. With `COc1ccc(C(NC(=O)c2cnc(-c3cccnn3)nc2O)c2cccc(C)n2)c(OC)c1` (single isomer, unassigned) [Example 149, N-[(2,4-dimethoxyphenyl)(6-methylpyridin-2-yl)methyl]-4-hydroxy-2-(pyridazin-3-yl)pyrimidine-5-carboxamide], the IC50 is not above 10 nM. For the molecule `O=C(NCc1ccc(C(F)(F)F)cn1)c1cnc(-n2cccn2)nc1O` [Example 130, 4-hydroxy-2-(1H-pyrazol-1-yl)-N-{[5-(trifluoromethyl)pyridin-2-yl]methyl}pyrimidine-5-carboxamide], the IC50 was 10 to 100 nM. On to `CC(O)c1ccc(C(NC(=O)c2cnc(-c3cccnn3)nc2O)c2ccc(Cl)cc2)cc1` (centres unmarked) [Example 179, N-{(4-chlorophenyl)[4-(1-hydroxyethyl)phenyl]methyl}-4-hydroxy-2-(pyridazin-3-yl)pyrimidine-5-carboxamide], for which the IC50 was not above 10 nM. Consider `COc1ccc(C(NC(=O)c2cnc(-c3cccnn3)nc2O)c2ccc3ccccc3n2)cc1` (centres unmarked) [Example 171, 4-hydroxy-N-[(4-methoxyphenyl)(quinolin-2-yl)methyl]-2-(pyridazin-3-yl)pyrimidine-5-carboxamide], for which the half-maximal inhibitory concentration (IC50) was not above 10 nM.

In the case of `C[C@H](NC(=O)c1cnc(-c2cccnn2)nc1O)c1ccc(-c2cccnc2)cc1` [Example 187, 4-hydroxy-2-pyridazin-3-yl-N-[(1S)-1-(4-pyridin-3-ylphenyl)ethyl]pyrimidine-5-carboxamide trifluoroacetate (salt)], the 50% inhibitory concentration (IC50) is not above 10 nM. `O=C(NCc1ccc(-c2ccc(F)cc2)cc1)c1cnc(-n2cccn2)nc1O` [Example 63, N-[(4′-fluorobiphenyl-4-yl)methyl]-4-hydroxy-2-(1H-pyrazol-1-yl)pyrimidine-5-carboxamide]: the IC50 was not above 10 nM. As to `O=C(NCc1cnc(Cl)cn1)c1cnc(-n2cccn2)nc1O` [Example 64, N-[(5-chloropyrazin-2-yl)methyl]-4-hydroxy-2-(1H-pyrazol-1-yl)pyrimidine-5-carboxamide], the IC50 fell in the range of 10 to 100 nM.

In the case of `Cc1nc(-c2ncc(C(=O)NC(C)(C)C)c(O)n2)cs1` [Example 40, N-(tert-butyl)-4-hydroxy-2-(2-methyl-1,3-thiazol-4-yl)pyrimidine-5-carboxamide], the IC50 fell in the range of 100 to 1000 nM. Then `C[C@H](NC(=O)c1cnc(-c2cccnn2)nc1O)c1ccc(-c2cccc3cnccc23)cc1` [Example 185, 4-hydroxy-N-[(1S)-1-(4-isoquinolin-5-ylphenyl)ethyl]-2-pyridazin-3-ylpyrimidine-5-carboxamide], with not above 10 nM; and `Cc1nc(-c2ncc(C(=O)NCc3ccc(C(F)(F)F)cc3)c(O)n2)cs1` [Example 29, 4-Hydroxy-2-(2-methyl-1,3-thiazol-4-yl)-N-[4-(trifluoromethyl)benzyl]pyrimidine-5-carboxamide], with 10 to 100 nM. For the molecule `COc1ccc(C(NC(=O)c2cnc(-c3cccnn3)nc2O)c2cccc(C#N)c2)cc1` (single isomer, unassigned) [Example 147, N-[(3-cyanophenyl)(4-methoxyphenyl)methyl]-4-hydroxy-2-(pyridazin-3-yl)pyrimidine-5-carboxamide], the IC50 is not above 10 nM. On to `O=C(NCc1ccc(Cl)nc1)c1cnc(-n2cccn2)nc1O` [Example 59, N-[(6-chloropyridin-3-yl)methyl]-4-hydroxy-2-(1H-pyrazol-1-yl)pyrimidine-5-carboxamide], for which the IC50 was in the range of 10 to 100 nM. Then `O=C(NC1c2ccccc2-c2ccccc21)c1cnc(-n2cccn2)nc1O` [Example 102, N-9H-fluoren-9-yl-4-hydroxy-2-(1H-pyrazol-1-yl)pyrimidine-5-carboxamide], with not above 10 nM; and `Cc1ccc([C@H](C)NC(=O)c2cnc(-n3cccn3)nc2O)cc1` [Example 79, 4-Hydroxy-N-[(1S)-1-(4-methylphenyl)ethyl]-2-(1H-pyrazol-1-yl)pyrimidine-5-carboxamide], with not above 10 nM. Take `COc1ccc(C(NC(=O)c2cnc(-n3cccn3)nc2O)c2cnccn2)cc1` (centres unmarked) [Example 166, 4-hydroxy-N-[(4-methoxyphenyl)(pyrazin-2-yl)methyl]-2-(1H-pyrazol-1-yl)pyrimidine-5-carboxamide]: the IC50 was not above 10 nM. Then `C[C@H](NC(=O)c1cnc(-c2cccnn2)nc1O)c1ccc(-c2ccc(F)nc2)cc1` [Example 186, N-{(1S)-1-[4-(6-fluoropyridin-3-yl)phenyl]ethyl}-4-hydroxy-2-pyridazin-3-ylpyrimidine-5-carboxamide trifluoroacetate (salt)], with not above 10 nM. As to `C[C@@H](NC(=O)[C@H](NC(=O)c1cnc(-n2cccn2)nc1O)c1ccccc1)c1ccccc1` [Example 180, 4-Hydroxy-N-((1R)-2-oxo-1-phenyl-2-{[(1R)-1-phenylethyl]amino}ethyl)-2-(1H-pyrazol-1-yl)pyrimidine-5-carboxamide], the IC50 was in the range of 10 to 100 nM. Consider `COc1ccc(C(NC(=O)c2cnc(-c3cccnn3)nc2O)c2ccc(C#N)nc2)cc1` (centres unmarked) [Example 112, N-[(6-cyanopyridin-3-yl)(4-methoxyphenyl)methyl]-4-hydroxy-2-pyridazin-3-ylpyrimidine-5-carboxamide], for which the IC50 was not above 10 nM. Turning to `COCc1ccc(C(NC(=O)c2cnc(-c3cccnn3)nc2O)c2ccc(COC)cc2)cc1` [Example 184, N-{bis[4-(methoxymethyl)phenyl]methyl}-4-hydroxy-2-pyridazin-3-ylpyrimidine-5-carboxamide], the half-maximal inhibitory concentration (IC50) is not above 10 nM. On to `O=C(NC(c1ccccc1)c1ccccc1)c1cnc(-c2ccc[nH]2)nc1O` [Example 45, N-(diphenylmethyl)-4-hydroxy-2-(1H-pyrrol-2-yl)pyrimidine-5-carboxamide], for which the IC50 lay within 100 to 1000 nM. As to `O=C(N[C@@H](CO)c1ccccc1)c1cnc(-n2cccn2)nc1O` [Example 123, 4-hydroxy-N-[(1R)-2-hydroxy-1-phenylethyl]-2-(1H-pyrazol-1-yl)pyrimidine-5-carboxamide], the IC50 is not above 10 nM. Take `CC(C)(NC(=O)c1cnc(-n2cccn2)nc1O)c1ccc(Br)cc1` [Example 92, N-[1-(4-bromophenyl)-1-methylethyl]-4-hydroxy-2-(1H-pyrazol-1-yl)pyrimidine-5-carboxamide]: the IC50 is not above 10 nM.

The values above are taken from patent US8278304B2, “Substituted 4-hydroxypyrimidine-5-carboxamides” (Merck Sharp & Dohme Corp., priority 2008, dated 2012).
